The results in this text go back to patent US20240350597A1, “PROTEASE INHIBITORS” (University College Dublin, priority 2023, published 2024).

One assay relates to pancreatic elastase. As to the kind of experiment: Protease inhibition assay, elastase. The format is biochemical. Conditions: 10 min preincubation, A1AT compared with B3-TMP. The method, then: (§1) Proteases were incubated with a 1:5 molar excess of serpin and residual activity was determined by cleavage of fluorescent substrates. All assays were carried out at room temperature in 96-well plates in a total volume of 100 μL. Residual proteolytic activity was measured using a SpectraMax M3 Microplate Reader (Molecular Devices, Inc), using the appropriate buffer and synthetic fluorogenic peptide substrate: Cathepsin L, Z-FR-AMC (10 μM), 50 mM Na-Acetate, 100 mM NaCl, 1 mM EDTA, pH 5.5; Chymotrypsin, Z-AAPF-AMC (5 μM), PBS, 1 mg/ml BSA; Elastase, Met-O-Suc-AAPV-AMC (10 μM), 50 mM Tris, 120 mM NaCl, pH 8.0, 1 mg/ml BSA; Furin, Boc-RVRR-AMC (50 μM) 20 mM Tris, 1 mM CaCl2), 0.5% Brij-35, pH 9; TMPRSS2, Boc-QAR-AMC (80 μM), PBS; Trypsin, Z-FR-AMC (10 μM), 50 mM Tris, 0.2 mM DTT, 1 mg/ml BSA. The excitation and emission wavelengths used were 380 nm and 460 nm respectively. All assays were performed in triplicate.
(§2) As an indication of target protease selectivity, both serpins were tested with mammalian trypsin, chymotrypsin and elastase, in addition to TMPRSS2. A short preincubation time of 10 minutes prior to addition of fluorogenic substrate was used and residual activity determined.

In assay [1] the target is T1, TMPRSS2 (Homo sapiens, UniProt O15393).
T1 construct: purchased Cusabio Technology
T1 sequence (O15393 whole entry): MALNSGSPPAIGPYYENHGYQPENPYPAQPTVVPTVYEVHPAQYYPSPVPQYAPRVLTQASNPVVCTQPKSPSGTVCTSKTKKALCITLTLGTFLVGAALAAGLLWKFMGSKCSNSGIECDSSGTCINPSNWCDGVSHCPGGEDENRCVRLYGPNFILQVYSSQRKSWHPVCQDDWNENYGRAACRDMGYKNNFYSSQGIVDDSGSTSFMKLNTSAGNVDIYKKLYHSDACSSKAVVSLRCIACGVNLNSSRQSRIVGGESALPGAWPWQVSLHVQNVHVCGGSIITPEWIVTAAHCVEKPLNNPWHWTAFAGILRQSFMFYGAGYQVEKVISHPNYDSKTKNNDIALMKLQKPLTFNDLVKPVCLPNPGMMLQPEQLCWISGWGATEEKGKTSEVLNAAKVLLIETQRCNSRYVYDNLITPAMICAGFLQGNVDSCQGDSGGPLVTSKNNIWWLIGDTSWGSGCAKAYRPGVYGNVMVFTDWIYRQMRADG
In kind it is biochemical. The note with it: 5:1 serpin:protease ratio, 10 min incubation, substrate Boc-QAR-AMC.

The next assay deals with chymotrypsin. The experiment in a line: Protease inhibition assay, chymotrypsin. The format is biochemical. The note with it: 10 min preincubation, A1AT compared with B3-TMP. The protocol:
as §1, §2

The subject of assay [2] is SARS-CoV-2 Spike pseudoparticles. In kind it is cell-based. Conditions: 12.5 μM, A549-ACE2-TMPRSS2 cells.
Assay [3] deals with T1, TMPRSS2. As to the kind of experiment: Kinetic analysis of TMPRSS2 inhibition under pseudo first-order conditions. In kind it is biochemical. The note with it: room temperature, TMPRSS2 0.1 μM. The protocol:
For kinetic analysis of TMPRSS2 inhibition, second order inhibition rate constants were determined under pseudo first-order conditions using a range of serpin concentrations, and with TMPRSS2 buffer and substrate detailed above. Reactions were performed at room temperature and residual activity was determined at intervals over a 10 min incubation with a molar excess of serpin over protease. Concentration ranges were 0.12 to 0.44 μM for B3-TMP and 1.0 to 4 μM for A1AT. The apparent first order rate constant kobs for each concentration was calculated from the slope of the natural log of residual activity over time (−kobs). These values were plotted against inhibitor concentration and linear regression analysis of this plot gave the second order inhibition rate constant k2, with standard error determined.

Another assay relates to mammalian trypsin. As to the kind of experiment: Protease inhibition assay, trypsin. Conditions: 10 min preincubation, A1AT compared with B3-TMP. The format is biochemical. The method, then:
as §1, §2

In the case of alpha-1-antitrypsin [A1AT], the “pancreatic elastase inhibition (in words)” value in the assay on pancreatic elastase is given as “more effective inhibitor”. In addition, the “inhibition of TMPRSS2” value with TMPRSS2 [1] was 15%. The “chymotrypsin inhibition (in words)” value with chymotrypsin is listed as “more effective inhibitor”. In assay [2], the “inhibition of pseudoparticle entry” value was determined as 40%. Moreover, the “second order inhibition rate constant k2 of TMPRSS2 inhibition” value with TMPRSS2 [3] is recorded as “(4.8±0.55)×10^2 M^−1 s^−1”. Further, the “trypsin inhibition (in words)” value in the assay with mammalian trypsin is “more effective inhibitor”.
